Measured values reported in ChEMBL document CHEMBL5661967, “Antitumor activity of HKI-272, an orally active, irreversible inhibitor of the HER-2 tyrosine kinase” (Cancer Res, 2004).
Calls of active or inactive are those of the source. The calls are words filed in the database; no cut-off is given here.

What was measured:
A-431 [1] = assay: Antitumor activity against human A-431 cells xenografted in athymic nude mouse assessed as tumor growth inhibition at 5 mg/kg, po administered daily for 10 days via gavage and measured on day 15 relative to control; format: functional; conditions: A-431, 360 h, time 15 day, read-out: TGI
[2] = target: MAP kinase-activated protein kinase 2 (Homo sapiens, UniProt P49137); assay: Inhibition of recombinant MK2 (unknown origin) using peptide as substrate
Chain of MAP kinase-activated protein kinase 2 (P49137 whole entry): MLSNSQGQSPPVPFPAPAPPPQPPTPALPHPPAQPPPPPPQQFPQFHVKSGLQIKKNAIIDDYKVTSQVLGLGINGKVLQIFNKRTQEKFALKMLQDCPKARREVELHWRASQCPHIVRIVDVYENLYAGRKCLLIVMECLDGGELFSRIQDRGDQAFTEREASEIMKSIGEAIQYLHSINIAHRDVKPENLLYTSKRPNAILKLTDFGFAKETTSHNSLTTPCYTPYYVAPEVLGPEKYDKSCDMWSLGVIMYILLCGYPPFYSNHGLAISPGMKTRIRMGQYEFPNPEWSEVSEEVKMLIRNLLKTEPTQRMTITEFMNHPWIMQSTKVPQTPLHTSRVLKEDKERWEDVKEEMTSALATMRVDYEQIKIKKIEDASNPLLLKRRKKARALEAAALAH

BT-474 [3] = assay: Cell cycle arrest in human BT-474 cells assessed as accumulation of cells at S phase at 1 nM measured after 12 to 16 hrs by BrdUrd uptake assay (reference value: 26%); format: functional; conditions: time 12-16 hrs
BT-474 [4] = assay: Cell cycle arrest in human BT-474 cells assessed as accumulation of cells at Sub-G1 phase at 0.2 nM measured after 12 to 16 hrs by propidium iodide staining based flow cytometry (reference value: 8%); format: functional; conditions: time 12-16 hrs
MDA-MB-361 = assay: Antiproliferative activity against human MDA-MB-361 cells measured after 2 days by sulforhodamine B assay; format: functional, cell-based; conditions: MDA-MB-361, 48 h
[5] = target: Proto-oncogene tyrosine-protein kinase Src (Homo sapiens, UniProt P12931); assay: Inhibition of recombinant Src (unknown origin) using peptide as substrate
Chain of Proto-oncogene tyrosine-protein kinase Src (P12931 2-536 limits assumed): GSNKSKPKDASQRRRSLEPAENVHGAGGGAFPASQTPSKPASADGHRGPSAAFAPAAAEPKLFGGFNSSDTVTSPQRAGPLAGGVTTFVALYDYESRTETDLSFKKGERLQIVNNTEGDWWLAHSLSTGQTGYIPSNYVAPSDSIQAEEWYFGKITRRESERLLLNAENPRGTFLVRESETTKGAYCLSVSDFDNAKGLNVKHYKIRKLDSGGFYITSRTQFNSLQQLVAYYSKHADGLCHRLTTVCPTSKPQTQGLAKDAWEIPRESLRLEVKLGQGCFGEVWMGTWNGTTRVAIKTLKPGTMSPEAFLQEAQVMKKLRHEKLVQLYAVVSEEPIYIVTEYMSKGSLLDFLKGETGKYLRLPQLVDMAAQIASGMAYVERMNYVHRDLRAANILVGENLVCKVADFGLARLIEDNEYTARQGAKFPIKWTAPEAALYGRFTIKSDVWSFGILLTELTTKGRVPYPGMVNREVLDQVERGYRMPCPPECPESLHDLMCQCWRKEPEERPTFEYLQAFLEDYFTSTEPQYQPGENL

BT-474 [6] = assay: Cell cycle arrest in human BT-474 cells assessed as accumulation of cells at S phase at 0.4 nM measured after 12 to 16 hrs by propidium iodide staining based flow cytometry (reference value: 21%); format: functional; conditions: time 12-16 hrs
NIH3T3 = assay: Antitumor activity against mouse 3T3 cells transfected with HER-2 oncogene implanted in athymic nude mouse assessed as tumor growth inhibition at 20 mg/kg, po administered daily for 10 days via gavage and measured on day 21 relative to control; format: functional; conditions: NIH3T3, 504 h, time 21 day, read-out: TGI
[7] = Terminal half life in nude mouse at 20 mg/kg, po administered as single dose; format: ADME, organism-based; conditions: in vivo, read-out: beta t1/2 (converted)
BT-474 [8] = assay: Cell cycle arrest in human BT-474 cells assessed as accumulation of cells at G2/M phase at 0.2 nM measured after 12 to 16 hrs by propidium iodide staining based flow cytometry (reference value: 11%); format: functional; conditions: time 12-16 hrs
BT-474 [9] = assay: Antitumor activity against human BT-474 cells xenografted in athymic nude mouse assessed as tumor growth inhibition at 40 mg/kg, po administered daily for 20 days via gavage and measured on day 28 relative to control; format: functional; conditions: BT-474, 672 h, time 28 day, read-out: TGI
[10] = target: Receptor tyrosine-protein kinase erbB-2 (Homo sapiens, UniProt P04626); assay: Inhibition of [14C]HKI-272 binding to recombinant N-terminal His6-tagged HER2 cytoplasmic domain (676 to 1255 residues)(unknown origin) expressed in baculovirus infected Sf9 insect cells at 5 uM measured after 15 mins by fluorography
Chain of Receptor tyrosine-protein kinase erbB-2 (P04626 whole entry, the tested form may be a part): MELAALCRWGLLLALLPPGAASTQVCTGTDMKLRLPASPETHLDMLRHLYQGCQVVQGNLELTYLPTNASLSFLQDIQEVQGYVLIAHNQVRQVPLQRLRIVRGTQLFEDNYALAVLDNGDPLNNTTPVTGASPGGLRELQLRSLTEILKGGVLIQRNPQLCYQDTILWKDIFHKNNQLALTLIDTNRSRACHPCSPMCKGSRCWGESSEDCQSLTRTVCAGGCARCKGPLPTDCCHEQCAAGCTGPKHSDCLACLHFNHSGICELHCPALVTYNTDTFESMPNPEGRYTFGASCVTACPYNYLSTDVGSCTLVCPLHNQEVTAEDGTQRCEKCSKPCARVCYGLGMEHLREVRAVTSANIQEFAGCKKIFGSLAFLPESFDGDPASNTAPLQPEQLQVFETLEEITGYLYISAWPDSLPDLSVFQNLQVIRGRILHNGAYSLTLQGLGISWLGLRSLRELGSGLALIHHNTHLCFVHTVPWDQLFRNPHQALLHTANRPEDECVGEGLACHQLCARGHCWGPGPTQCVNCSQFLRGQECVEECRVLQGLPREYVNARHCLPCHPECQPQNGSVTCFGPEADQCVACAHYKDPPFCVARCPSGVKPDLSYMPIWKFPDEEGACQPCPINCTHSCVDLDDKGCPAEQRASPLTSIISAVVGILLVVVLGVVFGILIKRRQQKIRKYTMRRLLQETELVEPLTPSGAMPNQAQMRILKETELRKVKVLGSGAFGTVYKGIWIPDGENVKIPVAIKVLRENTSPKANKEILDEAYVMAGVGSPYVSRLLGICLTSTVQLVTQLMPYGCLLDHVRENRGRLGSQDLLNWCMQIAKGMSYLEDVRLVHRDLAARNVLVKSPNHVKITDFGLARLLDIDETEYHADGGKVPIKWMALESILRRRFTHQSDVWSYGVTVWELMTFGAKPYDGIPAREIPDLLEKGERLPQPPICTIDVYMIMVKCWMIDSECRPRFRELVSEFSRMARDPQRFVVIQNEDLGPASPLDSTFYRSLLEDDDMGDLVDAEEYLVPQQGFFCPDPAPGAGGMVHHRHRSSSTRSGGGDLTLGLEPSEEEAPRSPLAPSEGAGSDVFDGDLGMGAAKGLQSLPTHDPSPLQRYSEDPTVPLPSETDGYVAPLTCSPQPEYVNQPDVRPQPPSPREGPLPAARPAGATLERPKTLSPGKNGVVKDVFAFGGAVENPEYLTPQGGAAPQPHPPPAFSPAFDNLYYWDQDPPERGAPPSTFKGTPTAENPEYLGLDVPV

[11] = Toxicity in mouse 3T3 cells transfected with HER-2 oncogene implanted athymic nude mouse assessed as body weight loss at 20 to 80 mg/kg, po administered daily for 10 days; format: organism-based, NIH3T3; conditions: in vivo, 240 h, dose 20-80 mg/kg, time 10 day
[12] = target: Retinoblastoma-associated protein (Homo sapiens) (UniProt P06400); assay: Inhibition of Rb phosphorylation in human BT-474 cells at 1 to 10 nM incubated for 12 to 16 hrs by Western blot analysis; format: cell-based; conditions: dose 1-10 nM, time 12-16 hrs
Chain of Retinoblastoma-associated protein (Homo sapiens) (P06400 whole entry): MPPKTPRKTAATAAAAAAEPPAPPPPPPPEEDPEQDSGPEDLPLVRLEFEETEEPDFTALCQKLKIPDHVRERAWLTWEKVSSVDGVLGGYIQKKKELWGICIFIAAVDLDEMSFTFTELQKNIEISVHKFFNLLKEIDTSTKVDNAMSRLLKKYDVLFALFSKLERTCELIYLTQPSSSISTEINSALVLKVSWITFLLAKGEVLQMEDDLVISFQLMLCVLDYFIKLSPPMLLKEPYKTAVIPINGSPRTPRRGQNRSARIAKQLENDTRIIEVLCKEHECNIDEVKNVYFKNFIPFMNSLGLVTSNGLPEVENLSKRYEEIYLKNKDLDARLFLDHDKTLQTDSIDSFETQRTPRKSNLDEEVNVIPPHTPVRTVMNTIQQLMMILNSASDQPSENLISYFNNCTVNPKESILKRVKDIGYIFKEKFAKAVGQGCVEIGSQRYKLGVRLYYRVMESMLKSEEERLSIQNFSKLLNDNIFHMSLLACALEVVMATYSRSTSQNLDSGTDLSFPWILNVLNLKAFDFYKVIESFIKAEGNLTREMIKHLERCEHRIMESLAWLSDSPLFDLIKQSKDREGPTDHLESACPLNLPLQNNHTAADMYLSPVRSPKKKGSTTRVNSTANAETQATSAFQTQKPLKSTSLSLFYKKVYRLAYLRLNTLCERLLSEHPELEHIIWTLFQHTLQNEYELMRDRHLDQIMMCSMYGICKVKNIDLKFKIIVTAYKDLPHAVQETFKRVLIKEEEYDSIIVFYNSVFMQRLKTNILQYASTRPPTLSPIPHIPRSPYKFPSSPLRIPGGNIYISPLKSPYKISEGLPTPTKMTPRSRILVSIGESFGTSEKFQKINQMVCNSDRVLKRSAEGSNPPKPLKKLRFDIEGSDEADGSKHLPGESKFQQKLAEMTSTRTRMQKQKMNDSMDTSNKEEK

A-431 [13] = assay: Antitumor activity against human A-431 cells xenografted in athymic nude mouse assessed as tumor growth inhibition at 60 mg/kg, po administered daily for 10 days via gavage and measured on day 15 relative to control; format: functional; conditions: A-431, 360 h, time 15 day, read-out: TGI
BT-474 [14] = assay: Antiproliferative activity against human BT-474 cells measured after 6 days by sulforhodamine B assay; format: functional, cell-based; conditions: BT-474, 144 h

IC50 [2]: > 45000 nM
IC50 (MDA-MB-361): 190 nM
IC50 [5]: 1400 nM
half-life [7]: ~4 h
inhibition [10]: Active
inhibition [12]: Active
IC50 (BT-474 [14]): 2 nM
SMILES: COc1cc2ncc(C#N)c(Nc3ccc(OCc4ccccn4)c(Cl)c3)c2cc1NC(=O)/C=C/CN(C)C
inhibition in vivo at 5 mg/kg (A-431 [1]): 32%
Activity (BT-474 [3]): 12%
Activity (BT-474 [4]): 9%
Activity (BT-474 [6]): 12%
inhibition in vivo at 20 mg/kg (NIH3T3): 53%
Activity (BT-474 [8]): 13%
inhibition in vivo at 40 mg/kg (BT-474 [9]): 93%
Activity [11]: Non-Toxic
inhibition in vivo at 60 mg/kg (A-431 [13]): 76%
